# Laboratory results reported in US6737383B1, “Herbicidal oxadiazolidines” (priority 1999, dated 2004).
# How the values were obtained:
# [1] = tested on: cocklebur; assay: Test B pre/postemergence cocklebur; format: in vivo, Xanthium strumarium
# Outline: (§1)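 Herbicidal effect was estimated by eye on a ten-point control scale after plants spent twelve to sixteen days in a greenhouse following soil or foliar treatment. Foliar sprays targeted plants at one to four leaves; all doses were formulated in a non-phytotoxic solvent with surfactant.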
# [2] = tested on: corn; assay: Test B pre/postemergence corn; format: in vivo, Zea mays
# Outline: as §1
# [3] = tested on: crabgrass; assay: Test B pre/postemergence crabgrass; format: in vivo, Digitaria sanguinalis
# Outline: as §1
# [4] = tested on: giant foxtail; assay: Test B pre/postemergence giant foxtail; format: in vivo, Setaria faberii
# Outline: as §1
# [5] = tested on: morningglory; assay: Test B pre/postemergence morningglory; format: in vivo, Ipomoea hederacea
# Outline: as §1
# [6] = tested on: pigweed; assay: Test B pre/postemergence pigweed; format: in vivo, Amaranthus retroflexus
# Outline: as §1
# [7] = tested on: rape; assay: Test B pre/postemergence rape; format: in vivo, Brassica napus
# Outline: as §1
# [8] = tested on: soybean; assay: Test B pre/postemergence soybean; format: in vivo, Glycine max
# Outline: as §1
# [9] = tested on: sugar beet; assay: Test B pre/postemergence sugar beet; format: in vivo, Beta vulgaris
# Outline: as §1
# [10] = tested on: velvetleaf; assay: Test B pre/postemergence velvetleaf; format: in vivo, Abutilon theophrasti
# Outline: as §1
# [11] = tested on: wheat; assay: Test B pre/postemergence wheat; format: in vivo, Triticum aestivum
# Outline: as §1
# [12] = tested on: wild oat; assay: Test B pre/postemergence wild oat; format: in vivo, Avena fatua
# Outline: as §1
# [13] = tested on: purple nutsedge; assay: Test B pre/postemergence purple nutsedge; format: in vivo, Cyperus rotundus
# Outline: as §1
# [14] = tested on: rice; assay: Test B flood test rice; format: in vivo, Oryza sativa
# Outline: (§2)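 Flood test on plants grown to the 2-leaf stage; treated plants kept in greenhouse twelve to sixteen days, then visually rated against controls on a 0 (no effect) to 10 (complete control) scale.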
# [15] = tested on: duck salad; assay: Test B flood test duck salad; format: in vivo, Heteranthera limosa
# Outline: as §2
# [16] = tested on: bamyardgrass; assay: Test B flood test barnyardgrass; format: in vivo, Echinochloa crus-galli
# Outline: as §2
# [17] = Postemergence, Rate 125 g/ha, scale of 0 to 10 where 0 is no effect and 10 is complete control
# [18] = Preemergence, Rate 62 g/ha, scale 0 to 10 (0 no effect, 10 complete control)
# [19] = Preemergence, Rate 125 g/ha, 0 is no effect, 10 is complete control
# [20] = Preemergence, Rate 250 g/ha, scale 0 to 10, 0 is no effect, 10 is complete control
# [21] = Preemergence, Rate 500 g/ha, scale 0 to 10 (0 no effect, 10 complete control)
# [22] = Rate 62 g/ha, Postemergence, scale of 0 to 10 where 0 is no effect and 10 is complete control
# [23] = Rate 250 g/ha, Postemergence, scale 0 to 10, 0 is no effect, 10 is complete control
# [24] = Rate 500 g/ha, Postemergence, scale 0 to 10
# [25] = Postemergence (flood test species), Rate 125 g/ha, scale of 0 to 10 where 0 is no effect and 10 is complete control
# [26] = Rate 62 g/ha, Postemergence section, flood test species, scale of 0 to 10 where 0 is no effect and 10 is complete control
# [27] = Rate 250 g/ha, Postemergence (flood test), scale 0 to 10, 0 is no effect, 10 is complete control
# [28] = Rate 250 g/ha, headed Pre-emergence (flood test species), scale 0 to 10 (0 no effect, 10 complete control)
# [29] = Rate 500 g/ha, headed Pre-emergence (flood test species), scale 0 to 10 (0 no effect, 10 complete control)
# [30] = Rate 500 g/ha, listed under Postemergence (flood test species), scale 0 to 10
# [31] = Rate 1000 g/ha, Pre-emergence (as headed), scale 0 to 10
# [32] = Rate 2000 g/ha, Pre-emergence (as headed), scale 0 to 10
smiles,measurement,setting,value
Cc1cnn(C)c1-n1c(=O)on(C(=O)N(c2ccc(F)cc2)C(C)C)c1=O [Compound 125],Cocklebur plant response rating,[1]; [17],0
same,Cocklebur plant response rating,[1]; [18],0
same,Cocklebur plant response rating (0 to 10 scale),[1]; [19],0
same,Cocklebur plant response rating,[1]; [20],0
same,Cocklebur plant response rating,[1]; [21],0
same,Cocklebur plant response rating,[1]; [22],0
same,"Plant response rating, Cocklebur",[1]; [23],0
same,Cocklebur plant response rating,[1]; [24],0
same,Corn plant response rating,[2]; [17],0
same,Corn plant response rating,[2]; [18],0
same,Corn plant response rating (0 to 10 scale),[2]; [19],0
same,Corn plant response rating,[2]; [20],0
same,Corn plant response rating,[2]; [21],0
same,Corn plant response rating,[2]; [22],0
same,"Plant response rating, Corn",[2]; [23],0
same,Corn plant response rating,[2]; [24],0
same,Crabgrass plant response rating,[3]; [17],0
same,Crabgrass plant response rating,[3]; [18],0
same,Crabgrass plant response rating (0 to 10 scale),[3]; [19],0
same,Crabgrass plant response rating,[3]; [20],0
same,Crabgrass plant response rating,[3]; [21],0
same,Crabgrass plant response rating,[3]; [22],0
same,"Plant response rating, Crabgrass",[3]; [23],0
same,Crabgrass plant response rating,[3]; [24],0
same,Giant foxtail plant response rating,[4]; [17],0
same,Giant foxtail plant response rating,[4]; [18],0
same,Giant foxtail plant response rating (0 to 10 scale),[4]; [19],0
same,Giant foxtail plant response rating,[4]; [21],0
same,Giant foxtail plant response rating,[4]; [22],0
same,"Plant response rating, Giant foxtail",[4]; [23],0
same,Giant foxtail plant response rating,[4]; [24],0
same,Morningglory plant response rating,[5]; [17],0
same,Morningglory plant response rating,[5]; [18],0
same,Morningglory plant response rating (0 to 10 scale),[5]; [19],0
same,Morningglory plant response rating,[5]; [20],0
same,Morningglory plant response rating,[5]; [21],0
same,Morningglory plant response rating,[5]; [22],0
same,"Plant response rating, Morningglory",[5]; [23],2
same,Morningglory plant response rating,[5]; [24],2
same,Redroot pigweed plant response rating,[6]; [17],0
same,Redroot pigweed plant response rating,[6]; [18],0
same,Redroot pigweed plant response rating (0 to 10 scale),[6]; [19],0
same,Redroot pigweed plant response rating,[6]; [20],0
same,Redroot pigweed plant response rating,[6]; [21],0
same,Redroot pigweed plant response rating,[6]; [22],0
same,"Plant response rating, Redroot pigweed",[6]; [23],0
same,Redroot pigweed plant response rating,[6]; [24],0
same,Rape plant response rating,[7]; [17],0
same,Rape plant response rating,[7]; [18],0
same,Rape plant response rating (0 to 10 scale),[7]; [19],0
same,Rape plant response rating,[7]; [20],0
same,Rape plant response rating,[7]; [21],0
same,Rape plant response rating,[7]; [22],0
same,"Plant response rating, Rape",[7]; [23],0
same,Rape plant response rating,[7]; [24],0
same,Soybean plant response rating,[8]; [17],4
same,Soybean plant response rating,[8]; [18],0
same,Soybean plant response rating (0 to 10 scale),[8]; [19],0
same,Soybean plant response rating,[8]; [20],0
same,Soybean plant response rating,[8]; [21],0
same,Soybean plant response rating,[8]; [22],0
same,"Plant response rating, Soybean",[8]; [23],4
same,Soybean plant response rating,[8]; [24],4
same,Sugarbeets plant response rating,[9]; [17],0
same,Sugarbeets plant response rating,[9]; [18],0
same,Sugarbeets plant response rating (0 to 10 scale),[9]; [19],0
same,Sugarbeets plant response rating,[9]; [20],0
same,Sugarbeets plant response rating,[9]; [21],0
same,Sugarbeets plant response rating,[9]; [22],0
same,"Plant response rating, Sugarbeets",[9]; [23],0
same,Sugarbeets plant response rating,[9]; [24],0
same,Velvetleaf plant response rating,[10]; [17],0
same,Velvetleaf plant response rating,[10]; [18],0
same,Velvetleaf plant response rating (0 to 10 scale),[10]; [19],0
same,Velvetleaf plant response rating,[10]; [20],0
same,Velvetleaf plant response rating,[10]; [21],0
same,Velvetleaf plant response rating,[10]; [22],0
same,"Plant response rating, Velvetleaf",[10]; [23],0
same,Velvetleaf plant response rating,[10]; [24],0
same,Wheat plant response rating,[11]; [17],0
same,Wheat plant response rating,[11]; [18],0
same,Wheat plant response rating (0 to 10 scale),[11]; [19],0
same,Wheat plant response rating,[11]; [20],0
same,Wheat plant response rating,[11]; [21],0
same,Wheat plant response rating,[11]; [22],0
same,"Plant response rating, Wheat",[11]; [23],0
same,Wheat plant response rating,[11]; [24],0
same,Wild oats plant response rating,[12]; [17],0
same,Wild oats plant response rating,[12]; [18],0
same,Wild oats plant response rating (0 to 10 scale),[12]; [19],0
same,Wild oats plant response rating,[12]; [20],0
same,Wild oats plant response rating,[12]; [21],0
same,Wild oats plant response rating,[12]; [22],0
same,"Plant response rating, Wild oats",[12]; [23],0
same,Wild oats plant response rating,[12]; [24],0
same,Nutsedge plant response rating,[13]; [17],0
same,Nutsedge plant response rating,[13]; [18],0
same,Nutsedge plant response rating (0 to 10 scale),[13]; [19],0
same,Nutsedge plant response rating,[13]; [20],0
same,Nutsedge plant response rating,[13]; [21],0
same,Nutsedge plant response rating,[13]; [22],0
same,"Plant response rating, Nutsedge",[13]; [23],0
same,Nutsedge plant response rating,[13]; [24],0
same,Rice plant response rating,[14]; [25],0
same,Rice plant response rating,[14]; [26],0
same,"Plant response rating, Rice",[14]; [27],0
same,Rice plant response rating,[14]; [28],0
same,"Plant response rating, Rice",[14]; [29],0
same,Rice plant response rating,[14]; [30],0
same,Rice plant response rating,[14]; [31],0
same,Rice plant response rating,[14]; [32],0
same,Ducksalad plant response rating,[15]; [25],0
same,Ducksalad plant response rating,[15]; [26],0
same,"Plant response rating, Ducksalad",[15]; [27],0
same,Ducksalad plant response rating,[15]; [28],0
same,"Plant response rating, Ducksalad",[15]; [29],0
same,Ducksalad plant response rating,[15]; [30],0
same,Ducksalad plant response rating,[15]; [31],0
same,Ducksalad plant response rating,[15]; [32],0
same,Barnyardgrass plant response rating,[16]; [25],0
same,Barnyardgrass plant response rating,"[16]; Postemergence, Rate 62 g/ha, scale 0 to 10, 0 is no effect, 10 is complete control",0
same,"Plant response rating, Barnyardgrass",[16]; [27],0
same,Barnyardgrass plant response rating,[16]; [28],0
same,"Plant response rating, Barnyardgrass",[16]; [29],0
same,Barnyardgrass plant response rating,"[16]; Rate 500 g/ha, listed under Postemergence (flood test species), scale 0 to 10, 0 no effect, 10 complete control",0
same,Barnyardgrass plant response rating,[16]; [31],0
same,Barnyardgrass plant response rating,"[16]; Rate 2000 g/ha, Pre-emergence (as headed), scale 0 to 10, 0 no effect, 10 complete control",0
